Data published in patent US20240307561A1, “RA[…] INHIBITOR CONJUGATES FOR CANCER TREATMENT” (DUKE UNIVERSITY, priority 2021, published 2024).
Where two headings read alike, the source gives them in different places.

How the values were obtained:
PARP-1 = PARP-1 (Homo sapiens, UniProt P09874); details: release of PARP-1 from DNA; cited from earlier work
PIP cells = details: cited from earlier work
PSMA^+ PIP cells [1] = experiment: Subcellular fractionation in PSMA+ PIP cells; assay type: cell-based; details: 1 h
Experimental: Subcellular fractionation of [^131I]PARP-PSMA combo agent 13 in PSMA+ PIP cells was determined using The Subcellular Protein Fractionation Kit for Cultured Cells (Number 78840) purchased from Thermo Scientific. PIP Cells (5 million) were incubated with […] of [^131I] 13 in 1.5 ml tubes with a final incubation volume of 500 μL. Stepwise separation and preparation of cytoplasmic, membrane, nuclear soluble, chromatin-bound and cytoskeletal protein extracts from PSMA^+ PIP cells were achieved by following the protocol provided by Thermo Scientific. The following groups of experiments were performed: • 1. ([^131I]PARP-PSMA combo agent 13. • 2. ([^131I]PARP-PSMA combo agent 13+2-PMPA blocking agent (680 μM) • 3. ([^131I]PARP-PSMA combo agent 13+Olaparib blocking agent (6.8 mM) • 4. ([^131I]PARP-PSMA combo agent 13+2-PMPA blocking agent (6.8 mM)+Olaparib blocking agent (6.8 mM)

PSMA^+ PIP cells [2] = experiment: PSMA-specific uptake and internalization in PIP cells; assay type: cell-based; details: for Total cell-associated activity (percentage of input dose): 37° C., 5×10^5 PIP cells
Experimental: PSMA-specific uptake and internalization of [^131I]PARP-PSMA combo agent 13 was determined by incubation with 5×10^5 PIP cells in triplicate in the absence or presence of 200 μM 2-PMPA at 37° C. for 0.25-2 h. After removing the unbound activity-containing medium, the cells were washed with 50 mM glycine, pH 2.8 and finally, cells were lysed with 1M NaOH. Radioactivity in the supernatants, glycine wash (membrane-bound) and lysate (internalized) fractions was counted and percentage of input dose calculated. […] Total cell-associated activity was 18.7±1.0%, 30.0±0.9%, 31.8±1.0 and 37.9±0.6% at 15, 30, 60, and 120 min, respectively.

[3] = + 2-PMPA (6.8 mM) + Olaparib (6.8 mM) blocking agents
[4] = + 2-PMPA blocking agent (680 μM)
[5] = + Olaparib blocking agent (6.8 mM)

Sequence of PARP-1 (P09874 whole entry): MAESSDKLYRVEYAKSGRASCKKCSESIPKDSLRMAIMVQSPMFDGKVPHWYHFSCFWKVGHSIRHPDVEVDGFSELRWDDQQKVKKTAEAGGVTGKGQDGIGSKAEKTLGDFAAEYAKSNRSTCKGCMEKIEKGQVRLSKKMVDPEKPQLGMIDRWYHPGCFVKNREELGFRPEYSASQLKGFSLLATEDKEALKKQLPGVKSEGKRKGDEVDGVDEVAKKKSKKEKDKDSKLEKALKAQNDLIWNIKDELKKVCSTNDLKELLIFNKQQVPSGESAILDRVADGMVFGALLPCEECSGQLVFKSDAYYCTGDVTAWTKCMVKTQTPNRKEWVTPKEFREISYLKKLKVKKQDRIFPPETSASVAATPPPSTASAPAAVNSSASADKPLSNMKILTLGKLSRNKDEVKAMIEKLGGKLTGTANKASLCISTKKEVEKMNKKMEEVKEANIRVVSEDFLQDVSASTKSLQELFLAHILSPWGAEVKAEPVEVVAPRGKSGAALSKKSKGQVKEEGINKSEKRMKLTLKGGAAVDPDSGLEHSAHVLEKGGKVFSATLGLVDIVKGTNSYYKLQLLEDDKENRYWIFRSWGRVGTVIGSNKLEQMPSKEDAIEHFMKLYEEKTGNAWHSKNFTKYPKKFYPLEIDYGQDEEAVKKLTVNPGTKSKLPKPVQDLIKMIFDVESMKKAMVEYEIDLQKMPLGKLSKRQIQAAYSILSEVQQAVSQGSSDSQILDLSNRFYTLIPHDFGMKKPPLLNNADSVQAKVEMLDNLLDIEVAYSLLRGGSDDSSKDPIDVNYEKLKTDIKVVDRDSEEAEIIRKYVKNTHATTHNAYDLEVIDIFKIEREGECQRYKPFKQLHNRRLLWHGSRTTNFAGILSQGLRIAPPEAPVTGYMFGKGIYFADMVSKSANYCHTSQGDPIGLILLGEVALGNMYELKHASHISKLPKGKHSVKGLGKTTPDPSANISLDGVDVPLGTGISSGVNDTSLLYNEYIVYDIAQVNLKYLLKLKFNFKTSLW

Question: For `COC(=O)c1cnc(N2CCN(C(=O)c3ccc(-c4nc5c(C(N)=O)cccc5[nH]4)cc3)CC2)nc1` [UKTT15], which “dissociation rate constant (kd)” value (PARP-1) is on record?
Answer: The value was 0.00185 s⁻¹.

Question: Which results are given for `O=C(O)CC[C@H](NC(=O)N[C@@H](CCCCNC(=O)c1ccc([131I])cc1)C(=O)O)C(=O)O` [[^131I]DCIBzL]?
Answer: Total cell-associated activity (PIP cells; 30 min): 5.0±0.3%; Total cell-associated activity (PIP cells; 60 min): 9.3±1.5%; Total cell-associated activity (PIP cells; 120 min): 16.8±1.0%

Question: For `C[C@]1(c2nc3c(C(N)=O)cccc3[nH]2)CCCN1` [veliparib], which “dissociation rate constant (kd)” value (PARP-1) is on record?
Answer: The value was 0.00408 s⁻¹.

Question: What does the source list for `O=C(O)CC[C@H](NC(=O)N[C@@H](CCCCNC(=O)CCOCCOCCOCCNC(=O)c1cc([131I])cc(C(=O)N2CCN(C(=O)c3cc(Cc4n[nH]c(=O)c5ccccc45)ccc3F)CC2)c1)C(=O)O)C(=O)O` [[^131I]PARP-PSMA combo agent 13, (20S,24S)-1-(3-(4-(2-fluoro-5-((4-oxo-3,4-dihydrophthalazin-1-yl)methyl)benzoyl)piperazine-1-carbonyl)-5-[^131I]iodophenyl)-1,14,22-trioxo-5,8,11-trioxa-2,15,21,23-tetraazahexacosane-20,24,26-tricarboxylic Acid]?
Answer: Cells Left Over (PSMA^+ PIP cells [1]; [3]): 0.02%; Cytoplasmic (PSMA^+ PIP cells [1]; [3]): 2.13%; Cytoskeletal Protein (PSMA^+ PIP cells [1]; [3]): 0.02%; Membrane (PSMA^+ PIP cells [1]; [3]): 1.44%; Micrococcal Nuclease (PSMA^+ PIP cells [1]; [3]): 0.03%; Nuclear Soluble (PSMA^+ PIP cells [1]; [3]): 0.14%; Supernatant (Wash Out) (PSMA^+ PIP cells [1]; [3]): 87.21%; Total Cellular Uptake (PSMA^+ PIP cells [1]; [3]): 3.78%; Cells Left Over (PSMA^+ PIP cells [1]; [4]): 0.06%; Cytoplasmic (PSMA^+ PIP cells [1]; [4]): 1.47%; Cytoskeletal Protein (PSMA^+ PIP cells [1]; [4]): 0.03%; Membrane (PSMA^+ PIP cells [1]; [4]): 3.23%; Micrococcal Nuclease (PSMA^+ PIP cells [1]; [4]): 0.09%; Nuclear Soluble (PSMA^+ PIP cells [1]; [4]): 0.11%; Supernatant (Wash Out) (PSMA^+ PIP cells [1]; [4]): 86.85%; Total Cellular Uptake (PSMA^+ PIP cells [1]; [4]): 4.99%; Cells Left Over (PSMA^+ PIP cells [1]; [5]): 0.07%; Cytoplasmic (PSMA^+ PIP cells [1]; [5]): 3.09%; Cytoskeletal Protein (PSMA^+ PIP cells [1]; [5]): 0.15%; Membrane (PSMA^+ PIP cells [1]; [5]): 9.00%; Micrococcal Nuclease (PSMA^+ PIP cells [1]; [5]): 0.14%; Nuclear Soluble (PSMA^+ PIP cells [1]; [5]): 1.01%; Supernatant (Wash Out) (PSMA^+ PIP cells [1]; [5]): 82.42%; Total Cellular Uptake (PSMA^+ PIP cells [1]; [5]): 13.44%; Cells Left Over (PSMA^+ PIP cells [1]; no blocking agent): 0.45%; Cytoplasmic (PSMA^+ PIP cells [1]; no blocking agent): 2.50%; Cytoskeletal Protein (PSMA^+ PIP cells [1]; no blocking agent): 0.28%; Membrane (PSMA^+ PIP cells [1]; no blocking agent): 20.70%; Micrococcal Nuclease (PSMA^+ PIP cells [1]; no blocking agent): 0.59%; Nuclear Soluble (PSMA^+ PIP cells [1]; no blocking agent): 2.17%; Supernatant (Wash Out) (PSMA^+ PIP cells [1]; no blocking agent): 73.31%; Total Cellular Uptake (PSMA^+ PIP cells [1]; no blocking agent): 26.69%; Total cell-associated activity (percentage of input dose) (PSMA^+ PIP cells [2]; 15 min): 18.7±1.0%; Total cell-associated activity (percentage of input dose) (PSMA^+ PIP cells [2]; 30 min): 30.0±0.9%; Total cell-associated activity (percentage of input dose) (PSMA^+ PIP cells [2]; 60 min): 31.8±1.0%; Total cell-associated activity (percentage of input dose) (PSMA^+ PIP cells [2]; 120 min): 37.9±0.6%; Uptake blocked by 2-PMPA (PSMA^+ PIP cells [2]; presence of 200 μM 2-PMPA): > 80%
